Experimental data taken from patent US10030016B2 (Sunesis Pharmaceuticals, Inc., priority 2009, dated 2018).
Counter-ions that a name gives are not always drawn. Like-named read-outs stand apart in the source and are kept apart here.

Experiments:
PDK1 = PDK1 (Homo sapiens (Human), UniProt O15530); experiment: PDK1 kinase assay (coupled PDK1/AKT/FAM-crosstide assay, IMAP fluorescence polarization); assay type: biochemical
Procedure: A PDK1 kinase assay was performed as follows. PDK1 (amino acids 51-359) and AKT2 (amino acids 140-467 fused to PIFtide, amino acids […]) were expressed as N-terminally tagged GST fusion proteins in insect cells and purified to homogeneity. Enzyme activity was determined in a coupled PDK1/AKT/FAM-crosstide assay and phosphorylation of FAM-crosstide was determined by standard IMAP protocol (Molecular Devices). For inhibition studies, compounds were titrated 4-fold in DMSO and diluted 40-fold into assay buffer (10 mM Tris HCl pH7.2; 10 mM MgCl2; 0.01% Triton X-100; 1 mM DTT) containing PDK1, AKT2, and FAM-crosstide (final concentrations: 0.75 nM PDK1, 10 nM unphosphorylated AKT2, and 100 nM crosstide substrate). The kinase reaction was initiated by adding ATP to a final concentration of 40 μM of PDK1 and incubated at 25° C. for 30 min. To detect assay product, the kinase reaction was combined with Progressive Binding Solution (1:600 Progressive Binding Reagent, 50% Buffer A, 50% Buffer B, Molecular Devices) in a 1:3 ratio. The mixture was incubated for 2 hours at 25° C. and the plate was scanned on an Analyst AD with excitation at 485 nm and emission at 530 nm. The fluorescence polarization value “P” is defined by the equation below. The value “mP” is generated by multiplying the P value for each reaction well by a factor of 1000. The value “ΔmP” for each well is the mP value for that well minus the mP value for the average negative control. P=(Fpar−Fperp)/(Fpar+Fperp) Eq.:
Where “par” is fluorescence intensity parallel to the excitation plane; and “perp” is fluorescence intensity perpendicular to the excitation plane. ΔmP values were plotted as a function of compound concentration and the data were analyzed with a 4-parameter fit using GraphPad Prism software.

[1] = system: phospho-akt (Thr308) in PC-3 cells; experiment: Inhibition of phospho-akt (Thr308) in PC-3 cells, MSD phospho-akt 308 ELISA kit; assay type: cell-based; conditions: 2 hours, no serum, read-out: EC50
Procedure: PC-3 cells were harvested by trypsin and counted. Cells were plated in coated 96-well flat bottom plates (plate 15,000 cells/well in 100 ul growth media (10% FBS, 1× pen-strep) an place in an incubator overnight.
Subject inhibitors were stocked at 50 mM, then diluted to 30 mM (4.8 μl cpd plus […] DMSO) in 100% DMSO. Three-fold dilutions were performed from 30 mM stock. (4 μl into 8 ul 100% DMSO). Aliquots of 1.0 μl of inhibitor solution were transferred into SF Medium (using deep well block).
Control wells were prepared as follows. For DMSO high controls, 1.0 μl of 100% DMSO was added into 1.0 ml SF. For low controls for PC-3 cells, 5 μM of Wortmannin (10 μl of 1 mM Wortmannin stock was added into 2 ml SF Medium. The supernatant media was removed and the plate was blotted. 100 μl of controls/media or compound/media were added to cells and placed in incubator for 2 hours. The supernatant media was removed and the plate was blotted. 55 μl of the MSD complete lysis buffer was added (10 mls Tris Lysis buffer, 200 ul protease inhibitor, 100 ul phosphatase inhibitor 1, and 100 ul phosphatase inhibitor II). The plate was placed on a plate shaker for 60 mins at 4 deg.
MSD plates were blocked for 1 hour by adding 150 μl of Blocking Solution (3% BSA) to each well. The MSD plates were washed 4× with TBST, and 50 μl lysates were transferred to MSD plate and place on plate shaker shake at 4 degrees O/N, light shaking (speed 3.5). The plate was washed 4× with TBST.
25 μl of Ab detection solution was added to each well. The plate was sealed and incubated 1 hr RT, light shaking (speed 3.5). The plate was washed 4 times with TBST. 150 μl of Read Buffer was added (5 mls 4×MSD Read Buffer+15 mls water). Finally the plate was read immediately on the MSD plate reader.

[2] = inhibition of phospo-PDK1 in vitro
[3] = Homo sapiens, inhibition of P308 Akt in PC-3 cells, MSD
[4] = Homo sapiens, inhibition of P308 Akt in PC-3 cells using MSD

Sequence of PDK1 (O15530 51-359): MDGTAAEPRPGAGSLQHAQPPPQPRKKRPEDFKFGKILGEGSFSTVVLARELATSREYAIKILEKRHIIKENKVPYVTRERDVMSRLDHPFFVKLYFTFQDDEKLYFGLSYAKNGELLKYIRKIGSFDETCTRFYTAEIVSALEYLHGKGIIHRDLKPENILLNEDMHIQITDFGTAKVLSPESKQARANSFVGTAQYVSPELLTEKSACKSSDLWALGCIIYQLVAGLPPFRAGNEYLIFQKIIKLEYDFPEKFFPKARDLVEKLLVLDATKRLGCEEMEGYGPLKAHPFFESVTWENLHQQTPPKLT

| IC50 (PDK1; [2]) [nM] | EC50 [1, 3] [nM] | IC50 (PDK1; inhibition of PDK1 in vitro) [nM] | EC50 [1, 4] [nM] | Compound | other results |
| --- | --- | --- | --- | --- | --- |
| > 5000 | > 10000 | – | – | C[C@H](NC(=O)c1cc(C#N)cnc1NC/C=C/c1ccc2c(c1)NC(=O)C2)c1ccc(F)cc1 [Example 15.3, (S,E)-5-cyano-N-(1-(4-fluorophenyl)ethyl)-2-(3-(2-oxoindolin-6-yl)allylamino)nicotinamide] | – |
| > 5000 | – | – | – | CCOC(=O)c1cccnc1NCc1cc(OC(C)C)cc(-c2cn(S(=O)(=O)c3ccccc3)c3ncc(C(=O)NC4CC4)cc23)c1 [4.1.17] | EC50 ([1]; inhibition of P308 Akt in PC-3 cells, MSD): > 10000 nM |
| – | – | > 5000 | 1000 to 10000 | Nc1n[nH]c2ncc(-c3ccc(CNc4ncc(C(F)(F)F)cc4C(=O)N[C@@H](CO)c4ccc(Br)cc4)cc3)cc12 [Example 283, (R)-2-(4-(3-amino-1H-pyrazolo [3,4-b]pyridin-5-yl)benzylamino)-N-(1-(4-bromophenyl)-2-hydroxyethyl)-5-(trifluoromethyl)nicotinamide] | – |
| – | – | < 100 | < 1000 | C[C@H](NC(=O)c1cc(C#N)cnc1NCc1ccc(-c2cnc(N)c(C(=O)NC3CC3)n2)cc1)c1ccc(F)cc1 [Example 218, (S)-3-amino-6-(4-((5-cyano-3-(1-(4-fluorophenyl)ethylcarbamoyl)pyridin-2-ylamino)methyl)phenyl)-N-cyclopropylpyrazine-2-carboxamide] | – |
| > 5000 | > 10000 | – | – | Nc1ncnc2ccc(-c3ccc(CNc4ncccc4C(=O)Nc4ccc(C(F)(F)F)cc4)s3)cc12 [Example 3.26, 2-({[5-(4-aminoquinazolin-6-yl)thiophen-2-yl]methyl}amino)-N-[4-(trifluoromethyl)phenyl] pyridine-3-carboxamide (TFA salt)] | – |
| < 100 | < 1000 | – | – | C[C@H](NC(=O)c1cccnc1NCc1ccc(-c2ccc3ncnc(N)c3c2)s1)c1cc(F)c(F)c(F)c1 [Example 3.63, (S)-2-(((5-(4-aminoquinazolin-6-yl)thiophen-2-yl)methyl)amino)-N-(1-(3,4,5-trifluorophenyl)ethyl) nicotinamide (TFA salt)] | – |
| 1000 to 5000 | 1000 to 10000 | – | – | Nc1ncnc2ccc(-c3ccc(CNc4ncc(Cl)cc4C(=O)NCc4ccc(F)c(F)c4)s3)cc12 [Example 8.12.3, 2-({[5-(4-aminoquinazolin-6-yl)thiophen-2-yl]methyl}amino)-5-chloro-N-(3,4-difluorobenzyl)pyridine-3-carboxamide] | – |
| < 100 | 1000 to 10000 | – | – | C[C@H](NC(=O)c1cc(C(F)(F)F)cnc1NCc1ccc(-c2ccc3ncnc(N)c3c2)s1)c1ccc(F)cc1 [Example 8.12.5, 2-({[5-(4-aminoquinazolin-6-yl)thiophen-2-yl]methyl}amino)-N-[(1S)-1-(4-fluorophenyl)ethyl]-5-(trifluoromethyl)pyridine-3-carboxamide] | – |
| < 100 | 1000 to 10000 | – | – | C[C@H](NC(=O)c1cccnc1NCc1ccc(-c2ccc3ncnc(NC4COC4)c3c2)s1)c1ccc(F)c(F)c1 [Example 4.35] | – |
| < 100 | – | – | < 1000 | Nc1ncnc2c1c(-c1ccc(CNc3ncc(C(F)(F)F)cc3C(=O)Nc3ccc(F)cc3)cc1)cn2C1COC1 [Example 443, 2-(4-(4-amino-7-(oxetan-3-yl)-7H-pyrrolo[2,3-d]pyrimidin-5-yl)benzylamino)-N-(4-fluorophenyl)-5-(trifluoromethyl)nicotinamide] | – |
| 100 to 1000 | – | – | – | C[C@H](NC(=O)c1nccnc1NCc1ccc(-c2cc3c(N)ncnc3cn2)s1)c1ccc(F)cc1 [Example 3.79, 3-({[5-(4-aminopyrido[3,4-d]pyrimidin-6-yl)thiophen-2-yl]methyl}amino)-N-[(1S)-1-(4-fluorophenyl)ethyl] pyrazine-2-carboxamide (TFA salt)] | EC50 ([1]; Homo sapiens, PC-3, 2 h, inhibition of P308 Akt in PC-3 cells, MSD): < 1000 nM |
| > 5000 | > 10000 | – | – | C[C@H](NC(=O)c1cccnc1N[C@@H](COc1ccc([N+](=O)[O-])c(N)c1)c1cccc(Cl)c1)c1ccc(F)c(F)c1 [Example 16.7, 2-((R)-2-(3-amino-4-nitrophenoxy)-1-(3-chlorophenyl)ethylamino)-N-((S)-1-(3,4-difluorophenyl)ethyl)nicotinamide] | – |
| – | – | < 100 | < 1000 | CN(C)CCCn1cc(-c2ccc(CNc3ncc(C(F)(F)F)cc3C(=O)NCc3ccc(F)c(F)c3)cc2)c2c(N)ncnc21 [Example 55, 2-(4-(4-amino-7-(3-(dimethylamino)propyl)-7H-pyrrolo[2,3-d]pyrimidin-5-yl)benzylamino)-N-(3,4-difluorobenzyl)-5-(trifluoromethyl)nicotinamide] | – |
| < 100 | 1000 to 10000 | – | – | C[C@H](NC(=O)c1nccnc1NCc1ccc(-c2ccc3ncnc(N)c3c2)s1)c1cccc(F)c1 [Example 3.69, 3-({[5-(4-aminoquinazolin-6-yl)thiophen-2-yl]methyl}amino)-N-[(1S)-1-(3-fluorophenyl)ethyl] pyrazine-2-carboxamide (TFA salt)] | – |
| – | – | < 100 | 1000 to 10000 | C[C@H](NC(=O)c1cc(C#N)cnc1NCc1ccc(-c2cnc3c(c2)OCCN3)cc1)c1ccc(F)cc1 [Example 137, (S)-5-cyano-2-(4-(3,4-dihydro-2H-pyrido [3,2-b][1,4]oxazin-7-yl)benzylamino)-N-(1-(4-fluorophenyl)ethyl)nicotinamide] | – |
| 1000 to 5000 | 1000 to 10000 | – | – | CCCS(=O)(=O)Nc1cnc(NCc2ccc(-c3ccc4ncnc(N)c4c3)s2)c(C(=O)NCc2ccc(F)c(F)c2)c1 [Example 8.6.4] | – |
| < 100 | < 1000 | – | – | C=C(C)c1cnc(NCc2ccc(-c3ccc4ncnc(N)c4c3)s2)c(C(=O)NCc2ccc(F)c(F)c2)c1 [Ex. 8.13, 2-({[5-(4-aminoquinazolin-6-yl)thiophen-2-yl]methyl}amino)-N-(3,4-difluorobenzyl)-5-(prop-1-en-2-yl)pyridine-3-carboxamide] | – |
| – | – | < 100 | > 10000 | C[C@H](NC(=O)c1cc(C#N)cnc1NCc1cnc(-c2cnc3[nH]ncc3c2)cn1)c1ccc(F)cc1 [Example 63, 5-Cyano-N-[(S)-1-(4-fluoro-phenyl)-ethyl]-2-{[5-(1H-pyrazolo[3,4-b]pyridin-5-yl)-pyrazin-2-ylmethyl]-amino}-nicotinamide] | – |
| – | – | < 100 | 1000 to 10000 | COC(=O)c1cc(-c2ccc(CNc3ncc(C#N)cc3C(=O)N[C@@H](C)c3ccc(F)cc3)cc2)cnc1N [Example 103, (S)-methyl 2-amino-5-(4-((5-cyano-3-(1-(4-fluorophenyl)ethylcarbamoyl)pyridin-2-ylamino)methyl)phenyl)nicotinate] | – |
| – | – | < 100 | < 1000 | C[C@H](NC(=O)c1cc(C#N)cnc1NCc1ccc(-c2cnc3[nH]nc(N)c3n2)cc1)c1ccc(F)cc1 [Example 183, 2-[4-(3-Amino-1H-pyrazolo [3,4-b]pyrazin-5-yl)-benzylamino]-5-cyano-N-[(S)-1-(4-fluoro-phenyl)-ethyl]-nicotinamide] | – |
| 100 to 1000 | > 10000 | – | – | O=C(NCc1ccc(F)c(F)c1)c1cccnc1NCc1ccc(-c2ccc3ncnc(NCCN4CCCC4)c3c2)s1 [Example 4.20, N-(3,4-difluorobenzyl)-2-(((5-(4-(2-(pyrrolidin-1-yl)ethylamino)quinazolin-6-yl)thiophen-2-yl)methyl)amino)nicotinamide] | – |
